The text below walks through data of patent US20240336565A1, “SOLID FORMS OF OSANETANT” (Acer Therapeutics, Inc., priority 2021, published 2024).

Entries after “also recorded” stand apart in the source; their conditions may differ.

The nature of the data set: Salt screen: XRPD of isolated solids after drying at 40° C. and at 40° C./75% RH. The class given is physicochemical. Particulars: for XRPD after drying at 40° C./75% RH: after 40° C. drying, dried at 40° C./75% RH for about 24 h, label = form after 40° C. drying; for XRPD after drying at 40° C.: isolated solids dried at 40° C. for about 24 h, label = wet form. How it is done:
To approximately 20 mg of amorphous lyophilized osanetant was added 0.3 mL of solvent for liquid counterion experiments. 0.2 mL of solvent was employed for solid counterion experiments. […] To the stirring mixture was then added 1.05 mol eq. of the appropriate counterion. Where solid counterions were used, the vial which contained the counterion was washed in to the osanetant containing vial with 0.1 mL of the appropriate solvent. Additional solvent was added where necessary. The experiments were thermally cycled as follows: heated from 25 to 40° C. at a rate of 0.1° C./min; 1 h at 40° C.; Cool to 5° C. at a rate of 0.1° C.; 1 h at 5° C.; 40° C. at a rate of 0.1° C./min; […] The crystallization experiments were thermally cycled overnight, then slurries were isolated by centrifugation. XRPD analysis was carried out on any isolated solids or gums. The XRPD plate, and the isolated solids, were then dried at 40° C. for about 24 h, and XRPD analysis was repeated. The XRPD plate was then dried at 40° C./75% RH for about 24 h and XRPD analysis was again repeated. All other samples were allowed to evaporated at ambient temperature and pressure.

With `CC(=O)N(C)C1(c2ccccc2)CCN(CCC[C@]2(c3ccc(Cl)c(Cl)c3)CCCN(C(=O)c3ccccc3)C2)CC1.O=C(O)C(O)C(O)C(=O)O` [osanetant L-tartaric acid Form 1], the “XRPD after drying at 40° C./75% RH” value is given as “crystallinity was lost” and the “XRPD after drying at 40° C.” value is listed as “no change”.

For `CC(=O)N(C)C1(c2ccccc2)CCN(CCCC2(c3ccc(Cl)c(Cl)c3)CCCN(C(=O)c3ccccc3)C2)CC1.O=C(O)C(O)C(O)C(=O)O` [osanetant L-tartaric acid Form 2], the “XRPD after drying at 40° C./75% RH” value is “crystallinity was lost” and the “XRPD after drying at 40° C.” value is on record as “no change”.

Regarding `CC(=O)N(C)C1(c2ccccc2)CCN(CCC[C@]2(c3ccc(Cl)c(Cl)c3)CCCN(C(=O)c3ccccc3)C2)CC1.CC(=O)O` [osanetant acetic acid Form 1, (R)-N-(1-(3-(1-benzoyl-3-(3,4-dichlorophenyl)piperidin-3-yl)propyl)-4-phenylpiperidin-4-yl)-N-methylacetamide acetic acid], the “XRPD after drying at 40° C.” value was “changed form on drying at 40 °C to Pattern 2”.

`CC(=O)N(C)C1(c2ccccc2)CCN(CCC[C@]2(c3ccc(Cl)c(Cl)c3)CCCN(C(=O)c3ccccc3)C2)CC1.CC(=O)O` [osanetant acetic acid Form 2, (R)-N-(1-(3-(1-benzoyl-3-(3,4-dichlorophenyl)piperidin-3-yl)propyl)-4-phenylpiperidin-4-yl)-N-methylacetamide acetic acid]: the “XRPD after drying at 40° C./75% RH” value (acetic acid) was “retained; also recorded: stable”.

On to `CC(=O)N(C)C1(c2ccccc2)CCN(CCC[C@]2(c3ccc(Cl)c(Cl)c3)CCCN(C(=O)c3ccccc3)C2)CC1.O=S(=O)(O)c1ccccc1` [osanetant benzenesulfonic acid Form 2, (R)-N-(1-(3-(1-benzoyl-3-(3,4-dichlorophenyl)piperidin-3-yl)propyl)-4-phenylpiperidin-4-yl)-N-methylacetamide benzenesulfonic acid], for which the “XRPD after drying at 40° C./75% RH” value is “converted to Pattern 1; also recorded: Form 1”.

As for `CC(=O)N(C)C1(c2ccccc2)CCN(CCC[C@]2(c3ccc(Cl)c(Cl)c3)CCCN(C(=O)c3ccccc3)C2)CC1.O=S(=O)(O)c1ccccc1` [osanetant benzenesulfonic acid Form 4, (R)-N-(1-(3-(1-benzoyl-3-(3,4-dichlorophenyl)piperidin-3-yl)propyl)-4-phenylpiperidin-4-yl)-N-methylacetamide benzenesulfonic acid], the “XRPD after drying at 40° C./75% RH” value is listed as “converted to Pattern 1; also recorded: Form 1**” and the “XRPD after drying at 40° C.” value is “Form 4”.

Take `CC(=O)N(C)C1(c2ccccc2)CCN(CCC[C@]2(c3ccc(Cl)c(Cl)c3)CCCN(C(=O)c3ccccc3)C2)CC1.O=C(O)c1ccccc1` [osanetant benzoic acid Form 1, (R)-N-(1-(3-(1-benzoyl-3-(3,4-dichlorophenyl)piperidin-3-yl)propyl)-4-phenylpiperidin-4-yl)-N-methylacetamide benzoic acid]: the “XRPD after drying at 40° C./75% RH” value is listed as “no change in form; also recorded: stable” and the “XRPD after drying at 40° C.” value is listed as “no change in form”.

On to `CC(=O)N(C)C1(c2ccccc2)CCN(CCC[C@]2(c3ccc(Cl)c(Cl)c3)CCCN(C(=O)c3ccccc3)C2)CC1.CCS(=O)(=O)O` [osanetant ethanesulfonic acid Form 1, (R)-N-(1-(3-(1-benzoyl-3-(3,4-dichlorophenyl)piperidin-3-yl)propyl)-4-phenylpiperidin-4-yl)-N-methylacetamide ethanesulfonic acid], for which the “XRPD after drying at 40° C.” value is “Form 2”.

With `CC(=O)N(C)C1(c2ccccc2)CCN(CCC[C@]2(c3ccc(Cl)c(Cl)c3)CCCN(C(=O)c3ccccc3)C2)CC1.CCS(=O)(=O)O` [osanetant ethanesulfonic acid Form 2, (R)-N-(1-(3-(1-benzoyl-3-(3,4-dichlorophenyl)piperidin-3-yl)propyl)-4-phenylpiperidin-4-yl)-N-methylacetamide ethanesulfonic acid], the “XRPD after drying at 40° C./75% RH” value was “Amorphous”.

Consider `CC(=O)N(C)C1(c2ccccc2)CCN(CCC[C@]2(c3ccc(Cl)c(Cl)c3)CCCN(C(=O)c3ccccc3)C2)CC1.O=C(O)/C=C/C(=O)O` [osanetant fumaric acid Form 1], for which the “XRPD after drying at 40° C./75% RH” value is on record as “crystallinity was lost” and the “XRPD after drying at 40° C.” value was “no change”.

On to `CC(=O)N(C)C1(c2ccccc2)CCN(CCC[C@]2(c3ccc(Cl)c(Cl)c3)CCCN(C(=O)c3ccccc3)C2)CC1.CS(=O)(=O)O` [osanetant methanesulfonic acid Form 1, (R)-N-(1-(3-(1-benzoyl-3-(3,4-dichlorophenyl)piperidin-3-yl)propyl)-4-phenylpiperidin-4-yl)-N-methylacetamide methanesulfonic acid], for which the “XRPD after drying at 40° C./75% RH” value is “Amorphous” and the “XRPD after drying at 40° C.” value is given as “Form 1”.

Take `CC(=O)N(C)C1(c2ccccc2)CCN(CCC[C@]2(c3ccc(Cl)c(Cl)c3)CCCN(C(=O)c3ccccc3)C2)CC1.CS(=O)(=O)O` [osanetant methanesulfonic acid Form 2, (R)-N-(1-(3-(1-benzoyl-3-(3,4-dichlorophenyl)piperidin-3-yl)propyl)-4-phenylpiperidin-4-yl)-N-methylacetamide methanesulfonic acid]: the “XRPD after drying at 40° C./75% RH” value was “Amorphous” and the “XRPD after drying at 40° C.” value is given as “Form 2”.

As to `CC(=O)N(C)C1(c2ccccc2)CCN(CCC[C@]2(c3ccc(Cl)c(Cl)c3)CCCN(C(=O)c3ccccc3)C2)CC1.Cc1ccc(S(=O)(=O)O)cc1` [osanetant p-toluenesulfonic acid Form 2, (R)-N-(1-(3-(1-benzoyl-3-(3,4-dichlorophenyl)piperidin-3-yl)propyl)-4-phenylpiperidin-4-yl)-N-methylacetamide p-toluenesulfonic acid], the “XRPD after drying at 40° C./75% RH” value is “converted to Pattern 1; also recorded: Form 1” and the “XRPD after drying at 40° C.” value is on record as “retained; also recorded: Form 2”.

Consider `CC(=O)N(C)C1(c2ccccc2)CCN(CCC[C@]2(c3ccc(Cl)c(Cl)c3)CCCN(C(=O)c3ccccc3)C2)CC1.Cc1ccc(S(=O)(=O)O)cc1` [osanetant p-toluenesulfonic acid Form 3, (R)-N-(1-(3-(1-benzoyl-3-(3,4-dichlorophenyl)piperidin-3-yl)propyl)-4-phenylpiperidin-4-yl)-N-methylacetamide p-toluenesulfonic acid], for which the “XRPD after drying at 40° C.” value is “converted to Pattern 4; also recorded: Form 4”.

For the compound `CC(=O)N(C)C1(c2ccccc2)CCN(CCC[C@]2(c3ccc(Cl)c(Cl)c3)CCCN(C(=O)c3ccccc3)C2)CC1.Cc1ccc(S(=O)(=O)O)cc1` [osanetant p-toluenesulfonic acid Form 4, (R)-N-(1-(3-(1-benzoyl-3-(3,4-dichlorophenyl)piperidin-3-yl)propyl)-4-phenylpiperidin-4-yl)-N-methylacetamide p-toluenesulfonic acid], the “XRPD after drying at 40° C./75% RH” value was “lost crystallinity; also recorded: Amorphous”.

Consider `CC(=O)N(C)C1(c2ccccc2)CCN(CCC[C@]2(c3ccc(Cl)c(Cl)c3)CCCN(C(=O)c3ccccc3)C2)CC1.O=P(O)(O)O` [osanetant phosphoric acid Form 1, (R)-N-(1-(3-(1-benzoyl-3-(3,4-dichlorophenyl)piperidin-3-yl)propyl)-4-phenylpiperidin-4-yl)-N-methylacetamide phosphoric acid], for which the “XRPD after drying at 40° C./75% RH” value is on record as “converted to Pattern 4; also recorded: Form 4” and the “XRPD after drying at 40° C.” value is on record as “Form 1”.

With `CC(=O)N(C)C1(c2ccccc2)CCN(CCC[C@]2(c3ccc(Cl)c(Cl)c3)CCCN(C(=O)c3ccccc3)C2)CC1.O=P(O)(O)O` [osanetant phosphoric acid Form 2, (R)-N-(1-(3-(1-benzoyl-3-(3,4-dichlorophenyl)piperidin-3-yl)propyl)-4-phenylpiperidin-4-yl)-N-methylacetamide phosphoric acid], the “XRPD after drying at 40° C./75% RH” value is “converted to Pattern 4; also recorded: Form 4*” and the “XRPD after drying at 40° C.” value is given as “Form 2”.

As to `CC(=O)N(C)C1(c2ccccc2)CCN(CCC[C@]2(c3ccc(Cl)c(Cl)c3)CCCN(C(=O)c3ccccc3)C2)CC1.O=P(O)(O)O` [osanetant phosphoric acid Form 3, (R)-N-(1-(3-(1-benzoyl-3-(3,4-dichlorophenyl)piperidin-3-yl)propyl)-4-phenylpiperidin-4-yl)-N-methylacetamide phosphoric acid], the “XRPD after drying at 40° C./75% RH” value is “retained; also recorded: stable; also recorded: Form 3” and the “XRPD after drying at 40° C.” value is reported as “Form 3”.

In the case of `CC(=O)N(C)C1(c2ccccc2)CCN(CCC[C@]2(c3ccc(Cl)c(Cl)c3)CCCN(C(=O)c3ccccc3)C2)CC1.O=P(O)(O)O` [osanetant phosphoric acid Form 4, (R)-N-(1-(3-(1-benzoyl-3-(3,4-dichlorophenyl)piperidin-3-yl)propyl)-4-phenylpiperidin-4-yl)-N-methylacetamide phosphoric acid], the “XRPD after drying at 40° C./75% RH” value is listed as “stable”.

With `CC(=O)N(C)C1(c2ccccc2)CCN(CCC[C@]2(c3ccc(Cl)c(Cl)c3)CCCN(C(=O)c3ccccc3)C2)CC1.O=S(=O)(O)O` [osanetant sulfuric acid Form 1, (R)-N-(1-(3-(1-benzoyl-3-(3,4-dichlorophenyl)piperidin-3-yl)propyl)-4-phenylpiperidin-4-yl)-N-methylacetamide sulfuric acid], the “XRPD after drying at 40° C.” value is recorded as “Form 2”.
